The numbers were not newly measured in patent US12691176B2, “Ionic nanovesicle suspension and biocide prepared therefrom” (priority 2015, dated 2026), which cites them from elsewhere.

One series concerns bacteria. As to conditions: very low concentrations.

Consider Polyaminopropyl biguanide [PAPB], for which, in the series with bacteria, the bactericidal concentration was 10 mg/L. For the same substance, in the series on fungi, the fungicidal activity result is “fungicidal”.
